Experimental data taken from ChEMBL document CHEMBL3351663, “Discovery of acylurea isosteres of 2-acylaminothiadiazole in the azaxanthene series of glucocorticoid receptor agonists” (Bioorg Med Chem Lett, 2014).

Tests used:
[1] = biological target: T1, Glucocorticoid receptor (Homo sapiens, UniProt P04150); assay: Agonist activity at glucocorticoid receptor in human HeLa cells assessed as NP-1 transactivation by luciferase reporter gene assay; type: cell-based
T1 sequence (P04150 whole entry): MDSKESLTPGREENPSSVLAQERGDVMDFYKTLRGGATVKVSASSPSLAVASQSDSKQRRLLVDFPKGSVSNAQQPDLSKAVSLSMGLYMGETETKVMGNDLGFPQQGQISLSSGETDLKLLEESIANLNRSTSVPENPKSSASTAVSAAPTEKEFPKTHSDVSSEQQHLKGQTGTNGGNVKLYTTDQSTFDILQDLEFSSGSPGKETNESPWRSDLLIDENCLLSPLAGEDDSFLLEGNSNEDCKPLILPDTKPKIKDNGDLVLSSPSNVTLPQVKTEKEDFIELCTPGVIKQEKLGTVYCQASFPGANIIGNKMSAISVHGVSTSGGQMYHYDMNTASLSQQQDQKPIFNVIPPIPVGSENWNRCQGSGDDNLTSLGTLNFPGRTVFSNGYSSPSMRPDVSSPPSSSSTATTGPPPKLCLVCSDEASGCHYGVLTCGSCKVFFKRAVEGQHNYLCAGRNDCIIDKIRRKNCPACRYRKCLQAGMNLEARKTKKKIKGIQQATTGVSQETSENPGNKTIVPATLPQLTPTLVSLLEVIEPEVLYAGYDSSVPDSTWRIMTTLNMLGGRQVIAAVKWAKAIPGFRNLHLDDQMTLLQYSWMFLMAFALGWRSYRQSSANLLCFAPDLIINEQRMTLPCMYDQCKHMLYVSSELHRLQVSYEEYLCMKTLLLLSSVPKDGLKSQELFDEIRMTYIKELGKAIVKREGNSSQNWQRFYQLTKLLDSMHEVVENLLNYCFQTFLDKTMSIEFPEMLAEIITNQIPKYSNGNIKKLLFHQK

[2] = biological target: T2, Progesterone receptor (Homo sapiens, UniProt P06401); assay: Binding affinity to progesterone receptor (unknown origin) by fluorescence polarization assay
T2 sequence (P06401 whole entry): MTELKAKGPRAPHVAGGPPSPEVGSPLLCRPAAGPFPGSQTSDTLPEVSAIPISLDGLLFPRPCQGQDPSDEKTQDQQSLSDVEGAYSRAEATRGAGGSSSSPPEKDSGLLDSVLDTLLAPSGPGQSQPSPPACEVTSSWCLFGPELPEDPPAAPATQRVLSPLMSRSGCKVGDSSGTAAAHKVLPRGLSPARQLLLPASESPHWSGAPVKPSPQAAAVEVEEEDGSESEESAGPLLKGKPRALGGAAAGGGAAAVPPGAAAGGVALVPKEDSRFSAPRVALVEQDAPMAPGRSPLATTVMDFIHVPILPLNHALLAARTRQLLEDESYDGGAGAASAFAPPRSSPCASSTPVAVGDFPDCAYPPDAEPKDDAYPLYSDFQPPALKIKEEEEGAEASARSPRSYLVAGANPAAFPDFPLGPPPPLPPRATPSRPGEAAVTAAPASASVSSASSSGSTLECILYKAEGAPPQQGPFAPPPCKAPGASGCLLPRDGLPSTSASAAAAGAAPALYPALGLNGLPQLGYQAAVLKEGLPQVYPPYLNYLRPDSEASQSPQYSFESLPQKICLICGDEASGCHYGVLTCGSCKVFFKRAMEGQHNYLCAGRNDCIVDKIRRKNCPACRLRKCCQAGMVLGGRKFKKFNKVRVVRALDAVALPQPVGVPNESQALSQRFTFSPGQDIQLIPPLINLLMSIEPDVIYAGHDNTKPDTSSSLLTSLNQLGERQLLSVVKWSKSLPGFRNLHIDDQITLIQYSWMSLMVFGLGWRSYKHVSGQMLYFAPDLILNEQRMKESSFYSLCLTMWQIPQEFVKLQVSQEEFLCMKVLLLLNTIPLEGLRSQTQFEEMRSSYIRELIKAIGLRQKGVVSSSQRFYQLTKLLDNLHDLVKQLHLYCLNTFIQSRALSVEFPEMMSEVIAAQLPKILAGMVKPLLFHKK

[3] = biological target: T1, Glucocorticoid receptor; parameters: species or system Blood
[4] = tested on: Liver; assay: Metabolic stability in mouse liver microsomes assessed as compound remaining
[5] = biological target: T1, Glucocorticoid receptor; assay: Agonist activity at glucocorticoid receptor in human A549 cells assessed as AP-1 transrepression by luciferase reporter gene assay; type: cell-based
[6] = biological target: T1, Glucocorticoid receptor; assay: Binding affinity to glucocorticoid receptor (unknown origin) by fluorescence polarization assay
[7] = tested on: Liver microsome; assay: Metabolic stability in rat liver microsomes assessed as compound remaining
[8] = tested on: Liver microsome; assay: Metabolic stability in human liver microsomes assessed as compound remaining
[9] = biological target: T1, Glucocorticoid receptor; assay: Agonist activity at glucocorticoid receptor in human A549 cells assessed as E-selectin transrepression by luciferase reporter gene assay; type: cell-based
[10] = Half life in human liver microsomes; conditions: liver microsomes
[11] = Half life in dog liver microsomes; type: ADME, Canis lupus familiaris
[12] = Clearance in rat at 1 mg/kg, iv; type: ADME, organism-based; parameters: dose 1 mg/kg, route intravenous; conditions: in vivo
[13] = Half life in rat liver microsomes; type: ADME
[14] = Clearance in iv dosed dog; type: ADME, organism-based, Canis lupus familiaris; conditions: in vivo
[15] = Oral bioavailability in dog at 5 mg/kg; type: ADME, organism-based, Canis lupus familiaris; conditions: in vivo
[16] = Oral bioavailability in rat at 10 mg/kg; type: ADME, organism-based; conditions: in vivo
[17] = species: Rattus norvegicus; assay: animal or person; type: functional; conditions: Lewis, route oral
[18] = Drug uptake in Lewis rat serum at 10 mg/kg, po after 3 hrs; type: ADME, organism-based; parameters: dose 10 mg/kg, route oral; conditions: read-out: Drug uptake
[19] = tested on: Rattus norvegicus; assay: Antiinflammatory activity in Lewis rat assessed as inhibition of LPS-induced TNF-alpha production at 30 mg/kg, po administered 90 mins prior to LPS challenge measured after 90 mins relative to vehicle-treated control; type: functional

Row | SMILES | EC50 [1] | Ki [2] | EC50 [3] | Stability [4] | EC50 [5] | Ki [6] | Stability [7] | Stability [8] | EC50 [9] | further results
1 | CC(C)(C(=O)NC(N)=O)[C@@H]1c2ccc(-c3ccc(C(=O)N4CCCC4)nc3)nc2Oc2c(F)cccc21 | 113 nM | 1360 nM | 211 nM | 86% | 16.5 nM | 2 nM | 86% | 73% | 12.2 nM | 
2 | CC(C)(C(=O)NC(N)=O)[C@@H]1c2ccc(-c3ccc(C(=O)N4CCOCC4)nc3)nc2Oc2c(F)cccc21 |  | 22.7 nM |  |  |  |  |  |  |  | 
3 | CC(C)(C(=O)NC(N)=O)[C@@H]1c2ccc(-c3ccc(C(=O)N4CCCC4)cc3)nc2Oc2c(F)cccc21 | 5.3 nM | 604 nM |  | 73% | 1.6 nM | 0.7 nM | 71% | 89% | 1.4 nM | 
4 | CC(C)(C(=O)NC(=O)NC1CCC1)[C@@H]1c2ccc(-c3ccc(C(=O)N4CCOCC4)cc3)nc2Oc2c(F)cccc21 | 676 nM | 5340 nM | 2380 nM |  | 17.5 nM | 8.7 nM |  |  | 32.8 nM | 
5 | CN(C)C(=O)NC(=O)C(C)(C)[C@@H]1c2ccc(-c3ccc(C(=O)N4CCOCC4)cc3)nc2Oc2c(F)cccc21 | 8910 nM | 10600 nM |  |  | 907 nM | 110 nM |  |  | 203 nM | 
6 | CCNC(=O)NC(=O)C(C)(C)[C@@H]1c2ccc(-c3ccc(C(=O)N4CCOCC4)cc3)nc2Oc2c(F)cccc21 |  | 2910 nM |  |  |  |  |  |  |  | 
7 | CC(C)(C(=O)NC(N)=O)[C@@H]1c2ccc(-c3ccc(C(=O)N4CC[C@H](F)C4)cc3)nc2Oc2c(F)cccc21 | 1.3 nM | 33300 nM |  | 77% | 0.8 nM | 1.2 nM | 67% | 56% | 0.6 nM | 
8 | CC(C)(C(=O)NC(=O)C1CC1)[C@@H]1c2ccc(-c3ccc(C(=O)N4CCOCC4)cc3)nc2Oc2c(F)cccc21 | 177 nM | 2040 nM | 418 nM |  | 18.4 nM | 8.5 nM |  |  | 17.6 nM | 
9 | COc1ccc(CNC(=O)NC(=O)C(C)(C)[C@@H]2c3ccc(-c4ccc(C(=O)N5CCOCC5)cc4)nc3Oc3c(F)cccc32)cc1 |  | 623 nM |  |  |  |  |  |  |  | 
10 | CC(C)(C(=O)NC(=O)C1CCC1)[C@@H]1c2ccc(-c3ccc(C(=O)N4CCOCC4)cc3)nc2Oc2c(F)cccc21 | 586 nM | 5340 nM | 2380 nM |  | 17.5 nM | 8.7 nM |  |  | 32.8 nM | 
11 | CCN(C)C(=O)c1ccc(-c2ccc3c(n2)Oc2ccccc2[C@@H]3C(C)(C)C(=O)Nc2nncs2)cc1 | 98.5 nM | 1830 nM | 379 nM |  | 17.7 nM | 1.6 nM |  |  | 6.89 nM | 
12 | CC(C)Oc1ccc(-c2ccc3c(n2)Oc2c(F)cccc2[C@@H]3C(C)(C)C(=O)NC(N)=O)cn1 | 59.2 nM | 313 nM | 355 nM | 86% | 6.7 nM | 0.7 nM | 58% | 97% | 3.8 nM | half-life [10]: 3.18 h; half-life [11]: 1.63 h; clearance [12]: 20.8 mL/min/kg; half-life [13]: 0.233 h; clearance [14]: 9 mL/min/kg; bioavailability [15]: 82%; bioavailability [16]: 25.7%; inhibition in vivo at 10 mg/kg [17]: 69%; concentration at 3 h [18]: 500 nM
13 | CC(=O)NC(=O)C(C)(C)[C@@H]1c2ccc(-c3ccc(C(=O)N4CCCC4)cc3)nc2Oc2c(F)cccc21 | 27 nM | 12400 nM | 218 nM |  | 5.1 nM | 2.5 nM |  |  | 3.6 nM | 
14 | C[C@]12C=CC(=O)C=C1CC[C@@H]1[C@@H]2[C@@H](O)C[C@@]2(C)[C@H]1CC[C@]2(O)C(=O)CO [PREDNISOLONE] |  |  |  |  |  |  |  |  |  | inhibition in vivo at 30 mg/kg [19]: 75%
15 | CC(C)(O)c1ccc(-c2ccc3c(n2)Oc2c(F)cccc2[C@@H]3C(C)(C)C(=O)NC(N)=O)cn1 | 107 nM | 106 nM | 199 nM | 76% | 21.9 nM | 4 nM | 83% | 73% | 14.7 nM | 
16 | C[C@@H]1C[C@H]2[C@@H]3CCC4=CC(=O)C=C[C@]4(C)[C@@]3(F)[C@@H](O)C[C@]2(C)[C@@]1(O)C(=O)CO [DEXAMETHASONE] |  | 778 nM |  |  |  |  |  |  |  | 
17 | CNC(=O)NC(=O)C(C)(C)[C@@H]1c2ccc(-c3ccc(C(=O)N4CCOCC4)cc3)nc2Oc2c(F)cccc21 | 302 nM | 1170 nM | 1040 nM |  | 10.7 nM | 6.9 nM |  |  | 16.1 nM | 
18 | CC(C)C(=O)NC(=O)C(C)(C)[C@@H]1c2ccc(-c3ccc(C(=O)N4CCOCC4)cc3)nc2Oc2c(F)cccc21 | 1040 nM | 5040 nM | 389 nM |  | 23.7 nM |  |  |  | 74.8 nM | 
19 | CC(=O)NC(=O)C(C)(C)[C@@H]1c2ccc(-c3ccc(C(=O)N(C)C)cc3)nc2Oc2c(F)cccc21 | 1050 nM | 12400 nM | 1890 nM |  | 213 nM | 69.4 nM |  |  | 109 nM | 
20 | CC(=O)NC(=O)C(C)(C)[C@@H]1c2ccc(-c3ccc(C(=O)N4CCOCC4)cc3)nc2Oc2c(F)cccc21 | 14 nM | 268 nM | 88 nM |  | 5 nM | 5.9 nM |  |  | 3.2 nM | 
21 | CC(C)(C(=O)NC(N)=O)[C@H]1c2ccccc2Oc2nc(-c3ccc(C(=O)N4CCCC4)cc3)ccc21 | 49.3 nM | 2320 nM | 207 nM | 76% | 8.7 nM | 1.9 nM | 49% | 78% | 5 nM | 
22 | CC(C)(C(=O)NC(N)=O)[C@H]1c2ccccc2Oc2nc(-c3ccc(C(=O)N4CCOCC4)cc3)ccc21 | 11 nM | 282 nM | 3050 nM | 75% | 6.2 nM | 1.5 nM | 86% | 95% | 4.8 nM | 
23 | CN(C)C(=O)c1ccc(-c2ccc3c(n2)Oc2ccccc2[C@@H]3C(C)(C)C(=O)Nc2nncs2)cc1 | 242 nM | 1530 nM | 830 nM |  | 33.2 nM | 1.9 nM |  |  | 33.8 nM | 
